Entries after “also recorded” stand apart in the source; their conditions may differ.
Experiments:
rat MCH1R = rat MCH1R (Rattus norvegicus, UniProt P97639); assay: MCH-induced Ca2+ mobilization (FLIPR) in HEK 293T cells expressing rat MCH1R; assay type: cell-based
neuropeptide Y2 = target: T1, neuropeptide Y2 (Homo sapiens, UniProt P49146); assay: Selectivity versus neuropeptide Y2; assay type: cell-based
T1 sequence (P49146 1-381): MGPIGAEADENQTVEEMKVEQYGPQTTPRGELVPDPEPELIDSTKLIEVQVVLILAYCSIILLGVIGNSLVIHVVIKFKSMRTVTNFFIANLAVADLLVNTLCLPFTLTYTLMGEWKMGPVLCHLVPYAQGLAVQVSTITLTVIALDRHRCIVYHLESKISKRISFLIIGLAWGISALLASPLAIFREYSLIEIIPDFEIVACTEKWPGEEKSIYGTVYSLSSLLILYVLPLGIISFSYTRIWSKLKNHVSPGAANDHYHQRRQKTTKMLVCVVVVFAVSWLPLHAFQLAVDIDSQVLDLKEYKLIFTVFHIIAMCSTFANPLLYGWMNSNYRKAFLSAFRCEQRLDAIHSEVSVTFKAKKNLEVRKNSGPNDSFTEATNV

rats [1] = assay: Spontaneous food intake after icv administration, Example IV; assay type: in vivo, rat; settings: 5 nmol icv
Experimental: To determine inhibitory effects of TPI 1361-17 on spontaneous food intake, TPI 1361-17 (5 nmol) was administered icv and food intake was measured 0.5 h, 1 h, 2 h, and 4 h after the injection. Food intake was quantified either at the start of either the dark phase, which is considered similar to natural conditions, or the light phase. To synchronize initiation of the food intake and to measure the efficiency of TPI 1361-17, rat food pellets were removed for different lengths of time before the injection. It was observed that TPI 1361-17 reduced spontaneous food intake of rats that have been fasted for 1 hr before the dark phase by 37%. This inhibitory effect was detected within the first 30 minutes of feeding and is not detected later (FIG. 6A).
The two groups of rats that were tested at the beginning of the dark phase were starved for 1 h or 4 h before, being injected with 5 nmol of antagonist or ACSF between 6:00-7:00 p.m. Animals had free access to water. Fifteen minutes after injection, container of regular low-fat diet were placed in the cage, and food consumption was monitored for 4 h. The group of rats that were injected at the beginning of the light phase was starved overnight before being injected at 5 nmol of antagonist or ACSF. Monitoring of the food consumption was identical to that described for the rats starved during the dark phase.
For animal studies, adult male Sprague-Dawley rats weighing 200-300g were obtained from Charles River Laboratories (Wilmington, Mass.), bearing a 23-gauge stainless steel cannula placed into the right lateral ventricle. Rats were housed individually and maintained on a 12 h light-dark cycle (6:00 am-6:00 pm light) with free access to tap water and rat chaw (PROLAB RMH 2500, containing 23.0% protein, 4.5% fat, gross energy 4.5 kcal/g. PMI nutrition international, LLC. Brentwood, Mo.). […]

rats [2] = assay: Conditioned place aversion (CPA), Example VII; assay type: in vivo, rat; settings: 10 nmole i.c.v. on conditioning days 2,3; test day 4; listed as TPI
Experimental: Rats were randomly divided into two (2) groups of eight (8) rats each (Groups I and II). Testing was performed in four identical place-conditioning chambers (43×43×30.5 cm) connected to a common interface and computer (MED Associates, Inc., St. Albans, Vt.). Test chambers had two equal compartments, each with unique sensory cues. One compartment had black and white striped walls, a stainless-steel wire mesh floor (0.16-cm wire with 1.27-cm openings), corncob bedding, and lemon-scented water applied to the walls immediately before each test. The other compartment had white walls with black dots, stainless-steel grid floor (0.48-cm rods placed 1.6 cm apart), wood-chip bedding, and banana-scented water applied to the walls. The two compartments were separated by a middle wall with a black guillotine door in the center. All rats were weighed and acclimated to the test room for 20 min each day before being placed into the apparatus.
The CPA test consisted of three phases. During the preconditioning phase (day 1), the animals were placed into the chamber for 15 min. During the conditioning phase (day 2,3), animals were injected i.c.v with either 0 (Group I—n=8) or 10 nmole (Group 2—n=8) of TPI and confined to one side for 20 min. […] The activity of the animals was monitored for 15 min.

rats [3] = assay: Spontaneous food and water intake after 1 hour deprivation, Example VIII; assay type: in vivo, rat; settings: 10 nM i.c.v., start of dark cycle; for 30 minute food intake following 1 hour food/water deprivation, TPI treated versus control: b181 words it as control greater than treated, p less than 0.005
Experimental: In this example, adult male Sprague-Dawley rats, weighing 350-400 g were randomly divided into two (2) groups of eight (8) rats each (Groups I and II). The animals were housed individually in a room having an ambient temperature of 20 degrees C., a light cycle from 07:00 to 19:00 each day and a dark cycle from 19:00 to 07:00.
In a first experiment, food (rat chow) and water were made available ad libitum except during a 1 hour food/water deprivation period from 18:00 to 19:00. At the end of the 1 hour food/water deprivation period the animals in Group I (n=8) received 0.9% saline by i.c.v. injection and the animals in Group II (n−8) received 10 nM TPI 1361-17 (Formula IV) by i.c.v. injection. Immediately after dosing, and upon commencement of the darkness cycle, food (rat chow) and water were again made available ad libitum and food and water intake were measured for the next thirty (30) minutes. Data were compared using the non-parametric t-Test with the 0.05 level of probability and below being defined as significant.

Chain of rat MCH1R (P97639 whole entry): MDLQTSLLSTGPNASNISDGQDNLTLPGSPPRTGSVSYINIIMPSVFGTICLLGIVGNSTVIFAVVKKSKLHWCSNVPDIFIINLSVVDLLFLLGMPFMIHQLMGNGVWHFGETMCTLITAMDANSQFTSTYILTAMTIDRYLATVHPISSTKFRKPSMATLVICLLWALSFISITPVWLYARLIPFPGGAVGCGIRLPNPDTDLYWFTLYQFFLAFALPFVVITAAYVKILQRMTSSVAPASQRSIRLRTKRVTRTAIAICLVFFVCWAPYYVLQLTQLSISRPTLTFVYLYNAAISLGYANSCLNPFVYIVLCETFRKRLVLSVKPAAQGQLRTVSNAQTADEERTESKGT

IC50 (rat MCH1R; 1 nM MCH, HEK 293T cells expressing rat MCH1R): 6.1 nM
Slope of Schild regression (rat MCH1R; r2=0.975): 1.085±0.010
Kb (rat MCH1R; read-out: Kb predicted from Schild regression): 0.37 nM
pA2 (Schild regression) (rat MCH1R; shift of MCH dose response curves): 9.43
Change of basal Ca2+ level by the compound itself (rat MCH1R; without MCH): did not change the basal Ca^2+ level
Selectivity for MCH1R compared with neuropeptide Y2 (neuropeptide Y2): more than 1,000 fold
SMILES: C[C@@H](CNCc1ccccc1)N1C[C@H](CCCNC(=N)N)N(CCc2cccc(F)c2)C1=S [TPI 1361-17, N-(3-{(4S)-1-[(1S)-2-(benzylamino)-1-methylethyl]-3-[2-(3-fluorophenyl)ethyl]-2-thioxoimidazolidin-4-yl}propyl)guanidine]
Reduction of spontaneous food intake (rats [1]; fasted 1 hr before dark phase, first 30 minutes of feeding): 37%
Effect on spontaneous food intake (rats [1]; fasted 4 h before the dark phase): no apparent effect
Effect on spontaneous food intake (rats [1]; fasted 12 hrs before the light phase): no apparent effect
Conditioned place aversion (rats [2]): did not cause conditioned place aversion; also recorded: lack of conditioned place aversion
30 minute water intake following 1 hour food/water deprivation, TPI treated versus control (rats [3]): not significantly different
30 minute food intake following 1 hour food/water deprivation, TPI treated versus control (rats [3]): significantly greater
30 minute food intake following 1 hour food/water deprivation, TPI treated versus control (rats [3]; listed as TPI): significant decrease
30 minute water intake following 1 hour food/water deprivation, TPI treated versus control (rats [3]; listed as TPI): non-significant decrease
